Counter-ions that a name gives are not always drawn.
Assays:
[1] = system: gastric lesions induced by taurocholate acid, aspirin or indomethacin; conditions: rats, Ogletree et al 1992; cited from earlier work
human EP3 receptor = biological target: T1, human EP3 receptor (Homo sapiens, UniProt P43115); experiment: human EP3 calcium mobilisation assay; assay type: cell-based; conditions: CHO-K1 cells, antagonism of PGE2; averages of a number of experiments; read-out: functional pKi value (human EP3 calcium mobilisation assay) (converted)
T1 construct: expressed in transfected cells; host or cells: CHO-K1
T1 sequence (P43115 1-390): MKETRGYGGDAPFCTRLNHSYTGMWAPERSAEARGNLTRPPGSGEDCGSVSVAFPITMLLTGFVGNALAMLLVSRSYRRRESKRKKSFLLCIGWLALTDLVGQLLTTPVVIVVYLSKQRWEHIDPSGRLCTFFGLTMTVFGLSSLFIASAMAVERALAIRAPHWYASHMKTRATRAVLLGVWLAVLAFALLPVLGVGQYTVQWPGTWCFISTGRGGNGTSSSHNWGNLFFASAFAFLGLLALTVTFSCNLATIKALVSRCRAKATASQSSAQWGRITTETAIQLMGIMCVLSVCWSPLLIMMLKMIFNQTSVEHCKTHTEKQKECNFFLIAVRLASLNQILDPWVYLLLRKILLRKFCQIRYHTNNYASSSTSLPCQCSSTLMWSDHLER
Method: (§1) Briefly, the antagonist properties of compounds are assessed by their ability to inhibit the mobilisation of intracellular calcium ([Ca^2+]i) in response to activation of EP1 or EP3 receptors by the natural agonist hormone prostaglandin E2 (PGE2). Increasing concentrations of antagonist reduce the amount of calcium that a given concentration of PGE2 can mobilise. The net effect is to displace the PGE2 concentration-effect curve to higher concentrations of PGE2. The amount of calcium produced is assessed using a calcium-sensitive fluorescent dye such as Fluo-4, AM and a suitable instrument such as a Fluorimetric Imaging Plate Reader (FLIPR). Increasing amounts of [Ca^2+]i produced by receptor activation increase the amount of fluorescence produced by the dye and give rise to an increasing signal. The signal may be detected using the FLIPR instrument and the data generated may be analysed with suitable curve-fitting software.
(§2) The human EP1 or EP3 calcium mobilisation assay (hereafter referred to as ‘the calcium assay’) utilises Chinese hamster ovary-K1 (CHO-K1) cells into which a stable (PCIN; BioTechniques 20 (1996): 102-110) vector containing either EP1 or EP3 cDNA has previously been transfected. Cells are cultured in suitable flasks containing culture medium such as DMEM:F-12 supplemented with 10% v/v foetal calf serum, 2 mM L-glutamine, 0.25 mg/ml geneticin, 100 μM flurbiprofen and 10 μg/ml puromycin.
(§3) For assay, cells are harvested using a proprietary reagent that dislodges cells such as Versene. Cells are re-suspended in a suitable quantity of fresh culture media for introduction into a 384-well plate. Following incubation for 24 hours at 37° C. the culture media is replaced with a medium containing Fluo-4 and the detergent pluronic acid, and a further incubation takes place. Concentrations of compounds are then added to the plate in order to construct concentration-effect curves. This may be performed on the FLIPR in order to assess the agonist properties of the compounds. Concentrations of PGE2 are then added to the plate in order to assess the antagonist properties of the compounds.
The data so generated may be analysed by means of a computerised curve-fitting routine. The concentration of compound that elicits a half-maximal inhibition of the calcium mobilisation induced by PGE2 (pIC50) may then be estimated.

human TP receptor = biological target: T2, human TP receptor (Homo sapiens, UniProt P21731); experiment: human TP calcium mobilisation assay; assay type: cell-based; conditions: CHO-K1 cells, antagonism of U46619; averages of a number of experiments; read-out: functional pKi value (human TP calcium mobilisation assay) (converted)
T2 construct: expressed in transfected cells; host or cells: CHO-K1
T2 sequence (P21731 1-343): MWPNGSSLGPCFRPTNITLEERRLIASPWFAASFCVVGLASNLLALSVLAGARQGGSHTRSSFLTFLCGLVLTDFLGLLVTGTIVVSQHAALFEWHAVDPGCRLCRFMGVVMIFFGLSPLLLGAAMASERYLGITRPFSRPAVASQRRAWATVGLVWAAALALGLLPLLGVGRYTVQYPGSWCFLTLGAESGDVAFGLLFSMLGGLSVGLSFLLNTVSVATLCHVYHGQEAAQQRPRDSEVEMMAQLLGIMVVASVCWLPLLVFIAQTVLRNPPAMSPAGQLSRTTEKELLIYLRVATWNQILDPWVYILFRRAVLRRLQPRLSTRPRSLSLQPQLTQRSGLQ
Method: as §1, with “To determine if a compound has agonist or antagonist activity at the TP receptor a functional calcium mobilisation assay may be performed. Briefly,” for “Briefly,”, “TP” for “EP1 or EP3”, “stable TXA2 mimetic U46619 (9,11-dideoxy-11α,9α-epoxy-methanoprostaglandin F2α; commercially available from e.g Sigma-Aldrich).” for “natural agonist hormone prostaglandin E2 (PGE2).”, “U46619” for “PGE2”, “curve.” for “curve to higher concentrations of PGE2.”, “software. The agonist activity of the compounds are determined by their ability to cause an increase in intracellular mobilisation in the absence of U46619.” for “software.”
as §2, with “TP” for “EP1 or EP3”, “assay” for “assay (hereafter referred to as ‘the calcium assay’)”, “(pCIN;” for “(PCIN;”, “TP” for “either EP1 or EP3”
as §3, with “96-well” for “384-well”, “U46619” for “PGE2”
The data so generated may be analysed by means of a computerised curve-fitting routine. The concentration of compound that elicits a half-maximal inhibition of the calcium mobilisation induced by U46619 (pIC50) may then be estimated, and the percentage activation caused by the compounds directly can be used to determine if there is any agonism present.

[2] = system: rat model of chronic constriction injury; conditions: Anesthesia and Analgesia 2001, 93, 1012-7; cited from earlier work
[3] = system: rodent model of post-operative pain; conditions: Anesthesia and Analgesia 2001, 92, 233-238; cited from earlier work
human EP1 receptor = biological target: T3, human EP1 receptor (Homo sapiens, UniProt P34995); experiment: Binding assay for the human prostanoid EP1 receptor (radioligand competition); set-up: expressed in transfected cells; host or cells: CHO-K1 (membranes); conditions: CHO-K1 membranes; [3H]-PGE2 for Examples 1-17, 19, 33, 34, 60 and 61, 3-{2-[5-Bromo-2-(2,4-difluorobenzyloxy)-phenyl]-5-methyl-pyrrol-1-yl}-6-[3H3-methoxy]methoxy-benzoic acid for the remaining; averages of a number of experiments; read-out: pIC50 value (binding assay for the human prostanoid EP1 receptor) (converted)
T3 sequence (P34995 1-402): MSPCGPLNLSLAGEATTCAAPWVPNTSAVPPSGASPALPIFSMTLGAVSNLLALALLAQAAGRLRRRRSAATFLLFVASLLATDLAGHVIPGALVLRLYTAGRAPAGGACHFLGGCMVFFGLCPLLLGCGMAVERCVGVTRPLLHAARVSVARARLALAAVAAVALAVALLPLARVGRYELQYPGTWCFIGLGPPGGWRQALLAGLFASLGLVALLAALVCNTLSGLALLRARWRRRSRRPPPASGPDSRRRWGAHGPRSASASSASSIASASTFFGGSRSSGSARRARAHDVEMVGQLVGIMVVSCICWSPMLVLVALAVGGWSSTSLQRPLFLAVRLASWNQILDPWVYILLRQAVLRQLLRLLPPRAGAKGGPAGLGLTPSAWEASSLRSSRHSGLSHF
Procedure, shortened: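 Membranes from CHO-K1 cells stably expressing human EP1, in pH 6 MES buffer with 10 mM MgCl2. Competition with [3H]-PGE2 (3 nM final) for 30 min at 30 °C, or alternatively with a tritiated benzoic-acid ligand (0.2 nM final) for 45 min at 37 °C; filtration and scintillation counting, IC50 by non-linear fitting.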

O=C(O)Cc1ccc(CCNS(=O)(=O)c2ccc(Cl)cc2)cc1 [BM 13505]
gastric lesions [1]: inhibit gastric lesions

CC(C)c1cc2cc(Cl)cc(Cc3ccc(C(=O)Nc4c(F)cccc4F)o3)c2o1 [Example 8, 5-{[5-Chloro-2-(1-methylethyl)-1-benzofuran-7-yl]methyl}-N-(2,6-difluorophenyl)-2-furancarboxamide]
Ki (human EP3 receptor): 0.501 to 10 µM | Ki (human TP receptor): > 3.16 µM

Cc1cc(Cl)ccc1S(=O)(=O)NC[C@H]1C2CCC(CC2)[C@@H]1/C=C\CCCC(=O)O [ONO-8711]
hyperalgesia and allodynia [2]: reduces hyperalgesia and allodynia | mechanical hyperalgesia [3]: inhibits mechanical hyperalgesia

CC(C)c1cc2cc(Cl)cc(Cc3ccc(-c4nc5ccccc5[nH]4)o3)c2o1 [Example 2, 2-(5-{[5-Chloro-2-(1-methylethyl)-1-benzofuran-7-yl]methyl}-2-furanyl)-1H-benzimidazole Hydrochloride]
Ki (human TP receptor): > 3.16 µM | IC50 (human EP1 receptor): ≤ 0.1 µM

From patent US20090099169A1, “Benzofuran Compounds As EP1 Receptor Antagonists” (GLAXO GROUP LIMITED, priority 2006, published 2009)
